# Experimental data as given in patent EP0511033A1, “Extracts of the common lady's mantle, their preparation and their applications” (SYNTHELABO, priority 1991, dated 1992).
# Columns and labels:
# [1] = Free radical scavenging test on diphénylpicrylhydrazyl hydrate (decrease of absorbance at 513 nm); assay type: biochemical
# Description: Les extraits d'Alchemille obtenus selon l'invention présentent également des activités anti-radicalaires. On a démontré ces activités in vitro par deux méthodes de dosage. On a réalisé la première méthode de dosage sur un radical libre : le diphénylpicrylhydrazyl hydrate qui absorbe dans le violet à 513 nm. (Lamaison JL., Petitjean-Freytet C., Carnat P., Carnat A., 1988, Plantes Médicinales et Phytothérapie, 22, (4), p. 231-234). Un composé anti-radicalaire, piégeur des radicaux libres, entraîne une inhibition d'apparition de coloration du radical libre témoin, donc une diminution de la densité optique de ce radical libre. L'activité anti-radicalaire d'une substance s'exprime par la diminution du pourcentage d'absorbance du radical libre testé.Dans ces conditions de test, un extrait d'Alchemille obtenu selon l'invention présente une activité similaire à la vitamine E qui est la substance de référence la plus utilisée.
# [2] = Superoxide anion scavenging test (NADH/PMS generation, NBT reduction to diformazan, spectrophotometry); assay type: biochemical; details: for concentration donnant 90 % d'inhibition: 90 % inhibition of diformazan coloration
# Description: On a également testé l'activité anti-radicalaire sur l'anion superoxyde généré par la réaction de NADH (nicotinamide adénine dinucléotide hydrate) sur le PMS (phénazine méthosulfate). L'anion superoxyde provoque la réduction du NBT (Nitrobleu de Tétrazolium) en diformazan, de coloration bleu intense. On dose celui-ci par spectrophotométrie (Roback J., Gryglewski RJ., Biomedical Pharmacology, 1988, 37, (5), P. 837-841). On exprime l'activité anti-radicalaire d'une substance en pourcentage d'inhibition du développement de coloration due au diformazan. Par cette méthode de dosage, les extraits d'Alchemille présentent une activité bien supérieure aux 2 témoins testés, qui sont la quercétine et l'acide rosmarinique. Ainsi, on obtient 90 % d'inhibition avec des concentrations respectivement de 0,5 mg/ml d'acide rosmarinique et de quercétine, alors qu'on atteint ce niveau d'inhibition à une concentration de 0,1 mg/ml d'extrait aqueux d'Alchemille. Cet extrait est donc, dans ces conditions, 5 fois plus actif que les 2 témoins qui sont les plus actifs parmi les substances testées.
Compound,"INHIBITION % ([1]; concentration 0,01 mg/ml)","INHIBITION % ([1]; concentration 0,1 mg/ml)","INHIBITION % ([1]; concentration 0,05 mg/ml)","INHIBITION % ([1]; concentration 0,5 mg/ml)",INHIBITION % ([1]; concentration 1 mg/ml),activité anti-radicalaire (comparison in words) ([1]; compared with vitamine E),concentration donnant 90 % d'inhibition [2],"INHIBITION % ([2]; concentration 0,01 mg/ml)","INHIBITION % ([2]; concentration 0,1 mg/ml)","INHIBITION % ([2]; concentration 0,05 mg/ml)","INHIBITION % ([2]; concentration 0,5 mg/ml)",INHIBITION % ([2]; concentration 1 mg/ml)
Vitamine E,9%,61%,28%,95%,96%,,,,,,,
O=C(/C=C/c1ccc(O)c(O)c1)OC1CC(OC(=O)/C=C/c2ccc(O)c(O)c2)(C(=O)O)CC(O)C1O (centres unmarked) [Cynarine],16%,89%,60%,94%,96%,activité légèrement supérieure à la vitamine E,,,,,,
O=c1c(O)c(-c2ccc(O)c(O)c2)oc2cc(O)cc(O)c12 [Quercétine],,,,,,,"0,5 mg/ml",1%,69%,31%,91%,98%
O=C(/C=C/c1ccc(O)c(O)c1)O[C@H](Cc1ccc(O)c(O)c1)C(=O)O [Acide rosmarinique],,,,,,,"0,5 mg/ml",2%,59%,28%,90%,99%
